Measured values as given in paper PMC12006758 (Frontiers in Chemistry, 2025).
pKi: −log10 of the molar value. Converted amounts (≈) assume the structure as drawn. Where two headings read alike, the source gives them in different places.

Tests used:
[1] = target: CA IX; details: benzofuran-based SLC-0111 analog; ref Shaldam et al., 2021; cited from earlier work
[2] = system: caspase-9; test: Caspase-9 activity in PC3 cells; format: cell-based, human; details: DMSO control 4.66 ± 0.41
From the text: (§1) This notable increase underscores the activation of downstream apoptotic processes, as caspase-3 is a key effector protease responsible for the cleavage of vital cellular substrates during apoptosis. […] The activation of caspase-9 indicates the involvement of the intrinsic (mitochondrial) pathway, consistent with the observed modulation of upstream regulators, including p53, Bax, and Bcl-2.

[3] = system: Bax; test: Bax protein expression level in PC3 cells; format: cell-based, human; details: DMSO control 81.49 ± 3.16
[4] = system: PC3 cancer cell line; test: MTT cell viability assay, PC3; format: cell-based; details: Homo sapiens, read-out: IC50 PC3
Protocol: (§2) All cell lines were obtained from the Vacsera Cell Culture Library, Tissue Culture Unit, Cairo, Egypt, with ATCC certification. For further details, See Supplementary Appendix A in the supplementary data.
(§3) All cell lines were obtained from the Vacsera Cell Culture Library, Tissue Culture Unit, Cairo, Egypt, with ATCC certification.
(§4) Cells were cultured in DMEM (Invitrogen/Life Technologies) supplemented with 10% FBS (Hyclone), […] (Sigma), and 1% penicillin-streptomycin. Cells were seeded at a density of 1.2–1.8 × 10,000 cells per well in 96-well plates with 100 µL of complete growth medium […]. After 24 hours of incubation, 100 µL of serially diluted sterile test compounds were added to achieve final concentrations ranging from 0.01 to 100 µM, with growth media serving as the negative control. Following another 24-hour incubation, supernatants were removed, and cells were prepared for MTT testing.
(§5) Each experiment included a blank control with complete media but no cells. […] Reconstituted MTT was added to the culture medium at 10% of its volume, and cultures were incubated for 2 to 4 hours, depending on cell type and density.
(§6) Absorbance was measured spectrophotometrically at 570 nm, with background absorbance at 690 nm subtracted. Data from all experiments were recorded, and cell viability percentages were calculated.

[5] = system: HT-29 cancer cell line; test: MTT cell viability assay, HT-29; format: cell-based; details: Homo sapiens, HT-29 colon cancer cells
Protocol: as §2, §3, §4, §5, §6

[6] = system: PC3 cells; test: Annexin V-FITC/PI apoptosis assay; format: cell-based, human; details: Pyr at IC50 (8.63 μg/mL), 48 hours
From the text: To detect apoptosis in PC3 cancer cells, the Annexin V FITC assay protocol was employed as described in the literature ([Ali et al., 2024]). For further details, See Supplementary Appendix A in the supplementary data.
The Annexin V-FITC Apoptosis Detection Kit (Catalog #: K101-25, Bio Vision Research Products, Mountain View, CA, USA) operates on the principle that during the early stages of apoptosis, phosphatidylserine (PS) translocates from the inner leaflet of the plasma membrane to the extracellular surface. This relocation allows PS to be detected by Annexin V, a protein with high affinity for PS, when conjugated with a fluorescent compound. The staining process is quick, taking only 10 minutes, and apoptosis detection is performed using flow cytometry. The kit differentiates between apoptotic and necrotic cells based on Annexin V-FITC and propidium iodide (PI) labeling. Early apoptotic cells are Annexin V-positive and PI-negative, while late apoptotic cells are both Annexin V-positive and PI-positive.
For the experiment, cells (5 × 10⁵) were cultured in triplicate in Dulbecco’s Modified Eagle Medium (DMEM) at 37 °C in a 5% CO₂ atmosphere for 24 hours to allow for attachment. […] Following incubation, cells were harvested, washed with cold PBS, and resuspended in binding buffer. Annexin V and PI were added, and the cells were incubated at 4 °C in the dark for 30 minutes for staining. Flow cytometric analysis was performed using the FACS Calibur system (Becton Dickinson, Franklin Lakes, NJ, USA) on a minimum of 10⁴ cells. Dot plots were generated, and the total fraction of apoptotic cells was quantified as described.

[7] = system: p53; test: p53 protein expression level in PC3 cells; format: cell-based, human; details: DMSO control 151.33 ± 3.33
[8] = system: Bcl-2; test: Bcl-2 protein expression level in PC3 cells; format: cell-based, human; details: DMSO control 21.68 ± 0.7
[9] = system: normal CCD-986sk cell line; test: MTT cell viability assay, normal CCD-986sk; format: cell-based; details: Homo sapiens, read-out: IC50 CCD-986sk
Protocol: as §2, §3, §4, §5, §6

[10] = system: caspase-3; test: Caspase-3 activity in PC3 cells; format: cell-based, human; details: DMSO control 67.02 ± 2.6
From the text: as §1

[11] = system: MCF7 cancer cell line; test: MTT cell viability assay, MCF7; format: cell-based; details: Homo sapiens
Protocol: as §2, §3, §4, §5, §6

[12] = system: PC3 cells; test: Cell cycle analysis by flow cytometry (PI); format: cell-based, human; details: Pyr at IC50 (8.63 μg/mL), 24 hours
Protocol: For further details, See Supplementary Appendix A in the supplementary data.
After treatment, the cells were washed twice with ice-cold phosphate-buffered saline (PBS, pH 7.4, Sigma-Aldrich, Inc.), collected by centrifugation, and fixed in 66% ice-cold ethanol. The cells were subsequently washed with PBS, resuspended in a solution containing 0.1 mg/mL RNase for 30 minutes, stained with 50 µg/mL propidium iodide (PI), and analyzed using the FACSCalibur flow cytometry system (Becton Dickinson, Franklin Lakes, NJ, USA). Cell cycle distributions were determined with CellQuest software (Becton Dickinson).

NS(=O)(=O)c1ccc(NC(=O)Nc2oc3ccccc3c2Br)cc1 [compound 1]
pKi [1]: 8.15

NS(=O)(=O)c1ccc(NC(=O)Nc2ccncc2)cc1 [Pyr, 4-(3-(pyridin-4-yl)ureido)benzenesulfonamide]
Caspase-9 Conc [2]: 41.82 ± 0.95 ng/mL | Bax Conc [3]: 477.27 ± 18.54 pg/mL | IC50 ([4]; MTT, PC3 prostate cancer cells): 8.36 µg/mL (≈ 28.6 µM) | IC50 [5]: 27.7 µg/mL (≈ 94.9 µM) | Apoptosis Late ([6]; DMSO control 0.15): 15.74% | Apoptosis Early ([6]; DMSO control 0.42): 9.33% | Necrosis ([6]; DMSO control 1.82): 4.39% | P53 Conc [7]: 1461.33 ± 10.00 pg/mL | Bcl-2 Conc [8]: 8.88 ± 0.3 pg/mL | IC50 ([9]; MTT, normal CCD-986sk cells): 50.3 µg/mL (≈ 172 µM) | Caspase 3 Conc [10]: 573.19 ± 22.27 pg/mL | IC50 ([11]; MTT, MCF7 breast cancer cells, read-out: IC50 MCF7): 11.2 µg/mL (≈ 38.3 µM) | DNA content % G2/M ([12]; DMSO control 17.50): 7.18% | DNA content % S ([12]; DMSO control 28.66): 16.23% | DNA content % G0-G1 ([12]; DMSO control 53.84): 76.59%

NS(=O)(=O)c1ccc(NC(=O)Nc2ccc(F)cc2)cc1 [SLC-0111, reference compound]
IC50 [4]: 8.71 µg/mL (≈ 28.2 µM) | IC50 ([9]; CCD-986Sk): 45.7 µg/mL (≈ 148 µM) | IC50 ([11]; MCF7, read-out: IC50 MCF7): 18.1 µg/mL (≈ 58.7 µM)
